Seven compounds from patent US20150218212A1, “FLUORINATED EPOXYKETONE-BASED TETRAPEPTIDE COMPOUNDS AND USES THEREOF AS PROTEASOME INHIBITORS” (FLUORINOV PHARMA INC., priority 2012, published 2015) can be followed below.

The target of the assay is T1, chymotrypsin-like (CT-L) proteasome activity (Homo sapiens, UniProt P20618+P28074).
T1 sequence (P28074 60-263): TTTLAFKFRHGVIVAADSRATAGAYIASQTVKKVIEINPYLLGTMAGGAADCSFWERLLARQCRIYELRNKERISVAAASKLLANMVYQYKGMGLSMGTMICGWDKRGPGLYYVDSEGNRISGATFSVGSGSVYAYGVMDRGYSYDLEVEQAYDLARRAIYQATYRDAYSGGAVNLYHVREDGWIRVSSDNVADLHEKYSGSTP
T1 sequence (P20618 29-241): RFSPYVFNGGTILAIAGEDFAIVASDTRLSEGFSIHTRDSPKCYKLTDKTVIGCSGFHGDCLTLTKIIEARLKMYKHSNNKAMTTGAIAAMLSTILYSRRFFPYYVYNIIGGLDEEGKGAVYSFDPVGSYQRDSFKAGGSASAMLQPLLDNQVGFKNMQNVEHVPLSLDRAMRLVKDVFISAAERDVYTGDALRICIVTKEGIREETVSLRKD
The assay is described as follows: Proteasome enzymatic activity (tumor cell lysates), CT-L, OCI-AML-2. It counts as biochemical. The following applies: OCI-AML-2, mean ± standard deviation. On the procedure: Human multiple myeloma cell lines 8226, H929, JJN3, KMH11, KMS11, KMS18, LP1, MM1S, OPM2 and U266 were grown in Iscove modified Dulbecco's medium (IMDM). Human leukemia cell lines K562, OCI-AML2 and U937 were cultured in RPMI-1640 medium. Primary peripheral blood mononuclear cells were isolated from multiple myeloma patients by Ficoll density gradient centrifugation and bone marrow aspirates were obtained from multiple myeloma patients at the Princess Margaret Cancer Centre of the University Health Network (UHN; Toronto, ON, Canada). Primary cells were cultured in IMDM. The collection and use of human tissue for this study was approved by the UHN institutional ethics review board. All cell culture media were obtained from the Ontario Cancer Institute Tissue Culture Media Facility (Toronto, ON, Canada) and were supplemented with 10% fetal calf serum, […] (Hyclone, Logan, Utah). All cells were grown in a humidified incubator at 37° C. with 5% CO2.
Cells were harvested by centrifugation at 1,200 rpm at room temperature. Cell pellets were washed with PBS (phosphate buffered saline) and lysed with assay lysis buffer (50 mM HEPES (N-2-hydroxyethylpiperazine-N′-2-ethanesulfonic acid), pH 7.5; 150 mM NaCl; 1% Triton X-100; 2 mM ATP). Cell lysates were incubated on ice for 30 minutes, mixed by vortex every 5 minutes, and then centrifuged at 12,000 g for 10 minutes. The supernatant was transferred to a 96-well plate. For each assay, 10 μg of total protein were incubated for 1 hour at 37° C. with increasing concentrations (1 nM to 10 μM) of test compound diluted in assay buffer (50 mM tris-HCl (tris(hydroxymethyl)aminomethane-HCl), pH 7.5; 150 mM NaCl). DMSO alone was used as a control in every assay plate. After incubation, a specific fluorogenic proteasome substrate was added to each assay reaction at a final concentration of 40 μM in a total volume of 100 μL. N-Succinyl-Leu-Leu-Val-Tyr-7-amino-4-methylcoumarin (Suc-Leu-Leu-Val-Tyr-AMC) was used for measuring chymotrypsin-like (CT-L) activity, t-butoxycarbonyl-Leu-Arg-Arg-7-amino-4-methylcoumarin (Boc-Leu-Arg-Arg-AMC) for trypsin-like (T-L) activity, and benzyloxycarbonyl-L-leucyl-L-leucyl-L-glutamyl-7-amino-4-methylcoumarin (Z-Leu-Leu-Glu-AMC) for caspase-like (C-L) activity. The excitation wavelength was set at 360 nm and the fluorescence emission wavelength of AMC was detected at 460 nm. The fluorescence of free AMC released during the enzymatic reaction was measured with a SpectraMax M5 fluorescent spectrophotometric plate reader (Molecular Devices, Sunnyvale, Calif.). AMC release rate was measured at 37° C. in a kinetic mode, recording every 5 minutes for 30 minutes. Experiments were performed in triplicate and repeated at least twice.
Table 8 summarizes the data of representative compounds of Formula I for cell viability and CT-L proteasome activity with OCI-AML-2 and KMS-11 cell lines.
As to `CC(C)C[C@H](NC(=O)[C@H](COC(F)F)NC(=O)CN1CCOCC1)C(=O)N[C@@H](COC(F)F)C(=O)N[C@@H](CC(C)C)C(=O)[C@@]1(C)CO1` [Example 1, (2S)—N-[(1S)-1-(difluoromethoxymethyl)-2-[[(1S)-3-methyl-1-[(2R)-2-methyloxirane-2-carbonyl]butyl]amino]-2-oxo-ethyl]-2-[[(2S)-3-(difluoromethoxy)-2-[(2-morpholinoacetyl)amino]propanoyl]amino]-4-methyl-pentanamide], it took 39 ± 1.24 nM to reach half-maximal inhibition (IC50). As for `CC(C)C[C@H](NC(=O)[C@H](COC(F)F)NC(=O)[C@H](COC(F)F)NC(=O)[C@H](CCc1ccccc1)NC(=O)CN1CCOCC1)C(=O)[C@@]1(C)CO1` [Example 7, (2S)-N-[(1S)-1-(difluoromethoxymethyl)-2-[[(1S)-1-(difluoromethoxymethyl)-2-[[(1S)-3-methyl-1-[(2R)-2-methyloxirane-2-carbo-nyl]butyl]amino]-2-oxo-ethyl]amino]-2-oxo-ethyl]-2-[(2-morpholinoacetyl)amino]-4-phenyl-butanamide], the concentration for half-maximal inhibition (IC50) (usually the midpoint of a concentration-inhibition curve) is 24.7 ± 9.6 nM. In turn, `CC(C)C[C@H](NC(=O)[C@H](COC(F)F)NC(=O)CN1CCOCC1)C(=O)N[C@@H](Cc1ccccc1)C(=O)N[C@@H](CC(C)C)C(=O)[C@@]1(C)CO1` [Example 2, (2S)-N-[(1S)-1-benzyl-2-[[(1S)-3-methyl-1-[(2R)-2-methyloxirane-2-carbonyl]butyl]-amino]-2-oxo-ethyl]-2-[[(2S)-3-(difluoromethoxy)-2-[(2-morpholinoacetyl)amino]propanoyl]amino]-4-methyl-pentanamide] showed an IC50 of 41.2 ± 3.19 nM. The value for `CC(C)C[C@H](NC(=O)[C@H](COC(F)F)NC(=O)[C@H](COC(F)F)NC(=O)[C@H](COC(F)F)NC(=O)CN1CCOCC1)C(=O)[C@@]1(C)CO1` [Example 17, (2S)-3-(difluoromethoxy)-N-[(1S)-1-(difluoromethoxymethyl)-2-[[(1S)-1-(difluoro-methoxymethyl)-2-[[(1S)-3-methyl-1-[(2R)-2-methyloxirane-2-carbonyl]butyl]amino]-2-oxo-ethyl]amino]-2-oxo-ethyl]-2-[(2-mor-pholinoacetyl)amino]-propanamide] was 58.3 ± 3.11 nM; that for `CC(C)C[C@H](NC(=O)[C@H](COC(F)F)NC(=O)CN1CCOCC1)C(=O)N[C@@H](COC(F)F)C(=O)N[C@@H](Cc1ccccc1)C(=O)[C@@]1(C)CO1` [Example 4, (2S)-N-[(1S)-2-[[(1S)-1-benzyl-2-[(2R)-2-methyloxiran-2-yl]-2-oxo-ethyl]amino]-1-(difluoromethoxymethyl)-2-oxo-ethyl]-2-[[(2S)-3-(difluoromethoxy)-2-[(2-mor-pholinoacetyl)amino]propanoyl]amino]-4 methyl-pentanamide] was 20.9 ± 0.91 nM. The value for `CC(C)C[C@H](NC(=O)[C@H](Cc1ccccc1)NC(=O)[C@H](COC(F)F)NC(=O)[C@H](COC(F)F)NC(=O)CN1CCOCC1)C(=O)[C@@]1(C)CO1` [Example 11, (2S)-2-[[(2S)-3-(difluoromethoxy)-2-[[(2S)-3-(difluoromethoxy)-2-[(2-morpholinoacetyl)-amino]propanoyl]amino]propanoyl]amino]-N-[(1S)-3-methyl-1-[(2R)-2-methyloxirane-2-carbonyl]butyl]-3-phenyl-propanamide] was 30.5 ± 3.9 nM; that for `CC(C)C[C@H](NC(=O)[C@H](COC(F)F)NC(=O)CN1CCOCC1)C(=O)N[C@@H](Cc1ccccc1)C(=O)N[C@@H](Cc1ccccc1)C(=O)[C@@]1(C)CO1` [Example 3, (2S)-N-[(1S)-1-benzyl-2-[[(1S)-1-benzyl-2-[(2R)-2-methyloxiran-2-yl]-2-oxo-ethyl]amino]-2-oxo-ethyl]-2-[[(2S)-3-(difluoromethoxy)-2-[(2-morpholinoacetyl)-amino]propanoyl]amino]-4-methyl-pentan-amide] was 30 ± 2.44 nM.
